Active and inactive are the calls of the source. Cut-off read from the data, not from the text of the source: actives have a measured IC50 and inactives only a lower limit.

The assay deals with Envelope glycoprotein gp160 (Human immunodeficiency virus 1, UniProt Q6QLK5). The assay is described as follows: inhibitors of HIV fusion peptide binding, primary screen, biochemical, uHTS, fluorescence dequenching (AID 1986).
Chain of Envelope glycoprotein gp160 (Q6QLK5 whole entry, the tested form may be a part): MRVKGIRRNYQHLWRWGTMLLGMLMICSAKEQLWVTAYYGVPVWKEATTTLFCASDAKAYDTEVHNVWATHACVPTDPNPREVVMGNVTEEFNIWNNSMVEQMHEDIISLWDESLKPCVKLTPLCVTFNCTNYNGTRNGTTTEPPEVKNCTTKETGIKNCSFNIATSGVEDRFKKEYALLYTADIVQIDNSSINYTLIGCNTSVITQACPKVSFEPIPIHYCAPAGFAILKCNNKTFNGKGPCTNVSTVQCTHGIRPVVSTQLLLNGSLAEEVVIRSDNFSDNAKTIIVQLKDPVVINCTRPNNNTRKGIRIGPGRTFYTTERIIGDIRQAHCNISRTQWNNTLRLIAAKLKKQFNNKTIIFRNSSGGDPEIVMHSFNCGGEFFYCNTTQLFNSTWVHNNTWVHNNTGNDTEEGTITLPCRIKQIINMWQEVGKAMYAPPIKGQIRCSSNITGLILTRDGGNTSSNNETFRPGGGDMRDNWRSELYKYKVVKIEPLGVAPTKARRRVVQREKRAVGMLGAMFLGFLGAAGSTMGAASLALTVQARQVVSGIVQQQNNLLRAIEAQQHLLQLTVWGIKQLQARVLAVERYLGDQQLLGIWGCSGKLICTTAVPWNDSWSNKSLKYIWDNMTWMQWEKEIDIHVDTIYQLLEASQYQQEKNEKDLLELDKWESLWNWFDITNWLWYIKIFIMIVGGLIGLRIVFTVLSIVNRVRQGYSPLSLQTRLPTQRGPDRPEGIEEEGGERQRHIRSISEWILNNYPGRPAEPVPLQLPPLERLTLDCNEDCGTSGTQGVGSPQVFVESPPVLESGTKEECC

Turning to `O=C(O)CN1C(=O)/C(=C\c2ccccc2OCc2ccc(Cl)cc2Cl)SC1=S`, the half-maximal inhibitory concentration (IC50) (in general, the concentration that inhibits the measured activity by half) was 16.1 µM (active).

For the origin of these results see ChEMBL document CHEMBL1201862, “PubChem BioAssay data set” (2004).
